Assay results taken from ChEMBL document CHEMBL1201862, “PubChem BioAssay data set” (2004).
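In this assay, cells in 96-well plates receive the compound at five concentrations for 48 hours. Endpoints are linearly interpolated between the surrounding concentrations. GI50 marks 50% less growth.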 The source made the active and inactive calls. No stated cut-off is given here; in the data, active = GI50 up to about 1.1 µM and inactive = higher.

Legend:
Assay in all cases: growth of human tumour cells (NCI), 48 h
CAKI-1 = system: CAKI-1
DU-145 = system: DU-145
EKVX = system: EKVX
HCC 2998 = system: HCC 2998
HL-60 = system: HL-60
HOP-92 = system: HOP-92
HT-29 = system: HT-29
Hs-578T = system: Hs-578T
M14 = system: M14
MOLT-4 = system: MOLT-4
OVCAR-3 = system: OVCAR-3
OVCAR-4 = system: OVCAR-4
OVCAR-5 = system: OVCAR-5
OVCAR-8 = system: OVCAR-8
SF-539 = system: SF-539
SK-MEL-28 = system: SK-MEL-28
SR = system: SR
SW-620 = system: SW-620
T47D = system: T47D
UACC-257 = system: UACC-257

Measured: GI50

COC(=O)c1c(C#C[Si](C)(C)C)c(C#C[Si](C)(C)C)c(C#C[Si](C)(C)C)c(C#C[Si](C)(C)C)c1C(=O)OC
inactive: CAKI-1 > 100 µM | DU-145 > 100 µM | EKVX > 100 µM | HCC 2998 > 100 µM | HL-60 > 100 µM | HOP-92 > 100 µM | HT-29 > 100 µM | Hs-578T > 100 µM | M14 > 100 µM | MOLT-4 > 100 µM | OVCAR-3 > 100 µM | OVCAR-4 > 100 µM | OVCAR-5 > 100 µM | OVCAR-8 > 100 µM | SF-539 > 100 µM | SK-MEL-28 > 100 µM | SR > 100 µM | SW-620 > 100 µM | T47D > 100 µM | UACC-257 > 100 µM

Cc1nc(C)c(N2CCN(CN)CC2)c(O)n1
inactive: CAKI-1 8.15 µM | DU-145 > 100 µM | EKVX > 100 µM | HCC 2998 > 100 µM | HL-60 > 100 µM | HOP-92 > 100 µM | HT-29 > 100 µM | Hs-578T > 100 µM | M14 > 100 µM | MOLT-4 > 100 µM | OVCAR-3 > 100 µM | OVCAR-4 > 100 µM | OVCAR-8 > 100 µM | SF-539 > 100 µM | SK-MEL-28 > 100 µM | SR > 100 µM | SW-620 > 100 µM | T47D > 100 µM | UACC-257 > 100 µM

CCOC(=O)/C=C(/C(=O)OCC)n1cc(C)c(=O)n(Cc2cnnn2COCCOC(C)=O)c1=O
inactive: CAKI-1 5.26 µM | DU-145 24.5 µM | EKVX 14.1 µM | HCC 2998 20 µM | HL-60 3.48 µM | HOP-92 2.43 µM | HT-29 13.9 µM | Hs-578T 19.1 µM | M14 14.7 µM | MOLT-4 3.94 µM | OVCAR-3 15.3 µM | OVCAR-4 24.7 µM | OVCAR-5 16.4 µM | OVCAR-8 14.7 µM | SF-539 5.22 µM | SK-MEL-28 16.4 µM | SR 4.91 µM | SW-620 3.81 µM | T47D 6.93 µM | UACC-257 13.5 µM

COc1ccc2oc(=O)c(-c3nc4ccccc4o3)cc2c1
inactive: CAKI-1 > 100 µM | DU-145 > 100 µM | EKVX > 100 µM | HCC 2998 55 µM | HL-60 29.9 µM | HOP-92 > 100 µM | HT-29 > 100 µM | Hs-578T > 100 µM | M14 > 100 µM | MOLT-4 > 100 µM | OVCAR-3 59.4 µM | OVCAR-4 > 100 µM | OVCAR-5 > 100 µM | OVCAR-8 > 100 µM | SF-539 > 100 µM | SK-MEL-28 > 100 µM | SR 5.25 µM | SW-620 > 100 µM | T47D 58.2 µM | UACC-257 > 100 µM

COc1cc(S(=O)(=O)Nc2ccc(-c3csc(N4C(=O)C(Cl)C4c4cccs4)n3)cc2)ccc1Cl (stereo not given)
inactive: CAKI-1 > 100 µM | DU-145 > 100 µM | EKVX 7.55 µM | HCC 2998 50.5 µM | HL-60 39.1 µM | HOP-92 19.7 µM | HT-29 > 100 µM | Hs-578T > 100 µM | M14 > 100 µM | MOLT-4 11.4 µM | OVCAR-3 > 100 µM | OVCAR-4 21.6 µM | OVCAR-5 > 100 µM | OVCAR-8 70.6 µM | SF-539 32.8 µM | SK-MEL-28 > 100 µM | SR 5.32 µM | SW-620 43.4 µM | T47D 54.6 µM | UACC-257 28.1 µM

COC(=O)NCCc1n[nH]c2c1C(=O)C=C(N1CCOCC1)C2=O
inactive: CAKI-1 > 100 µM | DU-145 > 100 µM | EKVX > 100 µM | HCC 2998 > 100 µM | HL-60 > 100 µM | HOP-92 > 100 µM | HT-29 > 100 µM | Hs-578T > 100 µM | M14 > 100 µM | MOLT-4 > 100 µM | OVCAR-3 > 100 µM | OVCAR-4 > 100 µM | OVCAR-5 > 100 µM | OVCAR-8 > 100 µM | SF-539 > 100 µM | SK-MEL-28 > 100 µM | SR > 100 µM | SW-620 > 100 µM | T47D > 100 µM | UACC-257 > 100 µM

Cc1[nH]c(=O)nc(N/N=C/c2ccc(Cl)cc2)c1C(=O)Nc1ccc(Cl)cc1
inactive: CAKI-1 53.5 µM | DU-145 > 100 µM | EKVX > 86.5 µM | HCC 2998 > 100 µM | HL-60 > 100 µM | HOP-92 28.8 µM | HT-29 24.1 µM | Hs-578T > 100 µM | M14 8.07 µM | MOLT-4 45.5 µM | OVCAR-3 8.97 µM | OVCAR-4 9.95 µM | OVCAR-5 82.4 µM | OVCAR-8 10.2 µM | SF-539 21.2 µM | SK-MEL-28 27.4 µM | SR 44.3 µM | SW-620 16.6 µM | T47D 13.7 µM | UACC-257 31 µM

C=C1C(OC2O[C@@H]3O[C@@]4(C)CC[C@H]5[C@H](C)CC[C@@H](C2=C)[C@@]35O4)O[C@@H]2O[C@@]3(C)CC[C@H]4[C@H](C)CC[C@@H]1[C@@]24O3 (stereo not given in full)
inactive: CAKI-1 > 50 µM | DU-145 > 50 µM | EKVX > 50 µM | HCC 2998 > 50 µM | HL-60 > 50 µM | HOP-92 > 50 µM | HT-29 > 50 µM | Hs-578T > 50 µM | M14 > 50 µM | MOLT-4 > 50 µM | OVCAR-3 > 50 µM | OVCAR-4 > 50 µM | OVCAR-5 > 50 µM | SF-539 > 50 µM | SK-MEL-28 > 50 µM | SR > 50 µM | SW-620 > 50 µM | T47D > 50 µM | UACC-257 > 50 µM

CC(=O)NC1C(OCc2ccccc2)OC(CO)C(O)C1OCC(=O)N[C@@H](C)C(=O)N[C@H](CCC(=O)NCCNc1ccc([N+](=O)[O-])c2[nH]c3ccccc3c(=O)c12)C(N)=O (stereo not given in full)
inactive: CAKI-1 29.9 µM | DU-145 33.4 µM | EKVX 20.8 µM | HCC 2998 10.9 µM | HL-60 54.7 µM | HOP-92 21.6 µM | HT-29 19.4 µM | Hs-578T 71.9 µM | M14 60.3 µM | OVCAR-3 36.7 µM | OVCAR-4 23.3 µM | OVCAR-5 37.2 µM | OVCAR-8 18.2 µM | SF-539 2.21 µM | SK-MEL-28 33.2 µM | SR 58.7 µM | SW-620 7.74 µM | T47D 57 µM | UACC-257 22.1 µM

CC1CC(=O)N(N(C)C)C2(C#N)C(=O)N=C(N)C12C#N (stereo not given)
inactive: CAKI-1 23.4 µM | DU-145 > 100 µM | EKVX > 100 µM | HCC 2998 > 100 µM | HL-60 19.3 µM | HOP-92 > 100 µM | HT-29 > 100 µM | Hs-578T > 100 µM | M14 > 100 µM | MOLT-4 36.7 µM | OVCAR-4 > 100 µM | OVCAR-5 > 100 µM | OVCAR-8 > 100 µM | SF-539 > 100 µM | SR > 100 µM | SW-620 35.4 µM | T47D > 100 µM | UACC-257 > 100 µM
